This note sets out measurements from patent publication US20190364896A1, “SYNERGISTIC WEED CONTROL FROM APPLICATIONS OF PYRIDINE CARBOXYLIC ACID HERBICIDES AND ALS INHIBITORS” (Dow AgroSciences LLC, priority 2014, published 2019).

Test in all cases: Postemergence herbicidal activity, greenhouse trial (visual injury 0-100%)
Format in all cases: in vivo

Assay [1] deals with kochia (Kochia scoparia, KCHSC). The procedure: (§1) Seeds of the desired test plant species were planted in Sun Gro MetroMix® 306 planting mixture, which typically has a pH of 6.0 to 6.8 and an organic matter content of about 30 percent, in plastic pots with a surface area of 103.2 square centimeters (cm^2). […] The plants were grown for 7-36 days (d) in a greenhouse with an approximate 14-hour (h) photoperiod which was maintained at about 23° C. during the day and 22° C. during the night. Nutrients and water were added on a regular basis and supplemental lighting was provided with overhead metal halide 1000-Watt lamps as necessary. The plants were employed for testing when they reached the second or third true leaf stage.
(§2) Weighed amounts of technical or formulated material (emulsifiable concentrate (EC) or soluble concentrate (SL)) were dissolved in a volume of 97:3 volume per volume (v/v) acetone/dimethyl sulfoxide (DMSO) to stock solutions. […] The concentrated stock solutions were diluted with an aqueous mixture of 1.5% v/v of Agri-dex crop oil concentrate to provide the appropriate application rates. Compound requirements are based upon a 12 milliliter (mL) application volume at a rate of 187 liters per hectare (L/ha). Spray solutions of the experimental compound mixtures were prepared by adding the stock solutions to the appropriate amount of dilution solution to form a 12 mL spray solution in two-way combinations. Formulated compounds were applied to the plant material with an overhead Mandel track sprayer equipped with 8002E nozzles calibrated to deliver 187 L/ha over an application area of 0.503 square meters (m^2) at a spray height of 18 inches (43 centimeters (cm)) above average plant canopy. Control plants were sprayed in the same manner with the solvent blank. Application rates for component (a) are in g ae/ha, and application rates for component (b) are in g ai/ha.
(§3) The treated plants and control plants were placed in a greenhouse as described above and watered by sub-irrigation to prevent wash-off of the test compounds. After 20-22 d, the condition of the test plants as compared with that of the control plants was determined visually and scored on a scale of 0 to 100 percent where 0 corresponds to no injury and 100 corresponds to complete kill. Colby's equation was used to determine the herbicidal effects expected from the mixtures. […]
(§4) Weighed amounts of technical material were dissolved in a volume of 97:3 volume per volume (v/v) acetone/dimethyl sulfoxide (DMSO) to stock solutions. […] The concentrated stock solutions were diluted with an aqueous mixture of 1.5% v/v of Agri-dex crop oil concentrate to provide the appropriate application rates. Compound requirements are based upon a 12 milliliter (mL) application volume at a rate of 187 liters per hectare (L/ha).

In assay [2] the test system is pigweed (Amaranthus retroflexus, AMARE). The method, then: as §1, §2, §3, §4
Assay [3] concerns thistle (Cirsium arvense, CIRAR). The procedure:
as §1, §2, §3, §4

The subject of assay [4] is wild buckwheat (Polygonum convolvulus, POLCO). The procedure: as §1, §2, §3, §4
Assay [5] deals with chickweed (Stellaria media, STEME). The method, then: as §1, §2
(§5) The treated plants and control plants were placed in a greenhouse as described above and watered by sub-irrigation to prevent wash-off of the test compounds. After 20-22 d, the condition of the test plants as compared with that of the control plants was determined visually and scored on a scale of 0 to 100 percent where 0 corresponds to no injury and 100 corresponds to complete kill. The condition of the test plants was compared with that of the control plants as determined visually and scored on a scale of 0 to 100 percent, where 0 corresponds to no injury and 100 corresponds to complete kill. Colby's equation was used to determine the herbicidal effects expected from the mixtures.
(§6) Compound 1 was formulated as an EC and was combined with florasulam, cloransulam, diclosulam, flumetsulam, penoxsulam, or pyroxsulam. Compound 2 was formulated as an EC and was combined with florasulam or pyroxsulam. The mixtures were applied to winter wheat (TRZAW), common rice (ORYSA), maize (ZEAMX), and the phytotoxicity of the herbicidal compositions was measured. In addition, the efficacy of the herbicidal compositions on blackgrass (Alopecurus myosuroides, ALOMY), pigweed (Amaranthus retrollexus, AMARE), wild oat (Avena fatua, AVEFA), common lambsquarters (Chenopodium album L., CHEAL), thistle (Cirsium arvense CIRAR), nutsedge (Cyperus esculentus, CYPES), barnyardgrass (Echinochloa crus-galli, ECHCG), poinsettia (Euphorbia heterophylla, EPHHL), ivyleaf morning-glory (Ipomoea hederacea, IPOHE), kochia (Kochia scoparia, KCHSC), wild buckwheat (Polygonum convolvulus, POLCO), grain sorghum (Sorghum vulgare, SORVU), chickweed (Stellaria media, STEME), wild pansy (Viola tricolor, VIOTR), was evaluated.
(§7) Weighed amounts of technical material were dissolved in a volume of 97:3 volume per volume (v/v) acetone/dimethyl sulfoxide (DMSO) to stock solutions. […] The concentrated stock solutions were diluted with an aqueous mixture of 1.5% v/v of Agri-dex crop oil concentrate to provide the appropriate application rates. Compound requirements are based upon a 12 milliliter (mL) application volume at a rate of 187 liters per hectare (L/ha). […]

Assay [6] deals with ivyleaf morning-glory (Ipomoea hederacea, IPOHE). The note with it: IPOHE. The method, then:
as §1, §2, §5, §6, §7

Assay [7] concerns wild pansy (Viola tricolor, VIOTR). The conditions noted are these: Viola tricolor, post-emergence, VIOTR, read-out: % visual injury Obs. The method, then:
as §1, §2, §5
as §6, with “Compound 1 was formulated as an EC and was combined with florasulam, cloransulam, diclosulam, flumetsulam, penoxsulam, or pyroxsulam.” left out
as §4

Assay [8] deals with nutsedge (Cyperus esculentus, CYPES). The note with it: Cyperus, post-emergence, read-out: % visual injury Obs. The procedure: as §1
as §2, with “technical” for “technical or formulated”, “material” for “material (emulsifiable concentrate (EC) or soluble concentrate (SL))”
as §3, §2

Assay [9] deals with poinsettia (Euphorbia heterophylla, EPHHL). The conditions noted are these: Euphorbia heterophylla, post-emergence; 4.375 g ai/ha; read-out: % visual injury Obs. The procedure:
as §1
as §2, with “technical” for “technical or formulated”, “material” for “material (emulsifiable concentrate (EC) or soluble concentrate (SL))”
as §3, §2

For assay [10], the system named is common lambsquarters (Chenopodium album L., CHEAL). The conditions noted are these: Chenopodium album, post-emergence, 4.375 g ai/ha; read-out: % visual injury Obs. The procedure: as §1, §2, §5, §6, §7
The test system of assay [11] is barnyardgrass (Echinochloa crus-galli, ECHCG). The note with it: Echinochloa crus-galli, post-emergence, ECHCG; thifensulfuron 15 g ai/ha; read-out: % visual injury Obs. The procedure:
as §1, §2, §5, §6, §7

Take halosulfuron: the “% visual injury Obs” value in assay [1] (KCHSC, halosulfuron 17.5 g ai/ha) was 0%; in [2] (AMARE, halosulfuron 17.5 g ai/ha), 30%; in assay [3] (CIRAR, halosulfuron 8.75 g ai/ha), 10%; in assay [4] (POLCO, halosulfuron 8.75 g ai/ha) it was 30%; in assay [5] (STEME, halosulfuron 17.5 g ai/ha), 50%; in [6] (halosulfuron 17.5 g ai/ha), 20%.

With `CCOc1ccccc1OS(=O)(=O)NC(=O)Nc1nc(OC)cc(OC)n1` [Ethoxysulfuron, ethoxysulfuron], the pest or weed control at 10 g/ha in assay [1] (Bassia scoparia, post-emergence, KCHSC, ethoxysulfuron 10 g ai/ha, read-out: % visual injury Obs) is 0%; in [2] (Amaranthus retroflexus, post-emergence, AMARE, ethoxysulfuron 10 g ai/ha, read-out: % visual injury Obs) it was 20%; in assay [5] (Stellaria media, post-emergence, STEME, ethoxysulfuron 10 g ai/ha, read-out: % visual injury Obs), 10%; in assay [7] (ethoxysulfuron 10 g ai/ha), 40%.

For `COC(=O)c1ccc(I)cc1S(=O)(=O)[N-]C(=O)Nc1nc(C)nc(OC)n1.[Na+]`, the pest or weed control at 2.5 g/ha in [4] (Fallopia convolvulus, post-emergence, POLCO, iodosulfuron 2.5 g ai/ha, read-out: % visual injury Obs) was 80%.

As to `CCOc1nc(F)cc2nc(S(=O)(=O)Nc3c(Cl)cccc3C(=O)OC)nn12` [Cloransulam, cloransulam], the pest or weed control came out at 50% in [8] (4.375 g ai/ha); 30% in assay [9]; 0% in assay [1] (Bassia scoparia, post-emergence, 4.375 g ai/ha, read-out: % visual injury Obs); 0% in assay [2] (Amaranthus retroflexus, post-emergence, 4.375 g ai/ha, read-out: % visual injury Obs); 99% in [3] (Cirsium arvense, post-emergence, 4.375 g ai/ha, read-out: % visual injury Obs); 85% in assay [4] (Fallopia convolvulus, post-emergence, 4.375 g ai/ha, read-out: % visual injury Obs). Also, the pest or weed control in assay [5] (Stellaria media, post-emergence, 4.375 g ai/ha, read-out: % visual injury Obs) stood at 0%; in [10], 0%.

`COC(=O)c1csc(C)c1S(=O)(=O)NC(=O)n1nc(OC)n(C)c1=O`: the pest or weed control at 5 g/ha in assay [8] (5 g ai/ha) amounted to 70%; in assay [1] (Bassia scoparia, post-emergence, 5 g ai/ha, read-out: % visual injury Obs), 10%; in assay [3] (Cirsium arvense, post-emergence, 5 g ai/ha, read-out: % visual injury Obs) it was 50%; in assay [5] (Stellaria media, post-emergence, 5 g ai/ha, read-out: % visual injury Obs) it was 95%.

Take `COC(=O)c1sccc1S(=O)(=O)NC(=O)Nc1nc(C)nc(OC)n1`: the pest or weed control at 15 g/ha in assay [8] (CYPES, thifensulfuron 15 g ai/ha) is 0%; in assay [3] (Cirsium arvense, post-emergence, CIRAR, thifensulfuron 15 g ai/ha, read-out: % visual injury Obs), 10%; in [11], 10%; in assay [6] (Ipomoea hederacea, post-emergence, thifensulfuron 15 g ai/ha, read-out: % visual injury Obs), 85%.

In the case of `CCS(=O)(=O)c1nc2ccccn2c1S(=O)(=O)NC(=O)Nc1nc(OC)cc(OC)n1` [Sulfosulfuron, sulfosulfuron], the pest or weed control at 8.75 g/ha worked out at 80% in assay [8] (CYPES, sulfosulfuron 8.75 g ai/ha); 85% in assay [3] (Cirsium arvense, post-emergence, CIRAR, sulfosulfuron 8.75 g ai/ha, read-out: % visual injury Obs); 80% in assay [4] (Fallopia convolvulus, post-emergence, POLCO, sulfosulfuron 8.75 g ai/ha, read-out: % visual injury Obs); 80% in assay [7] (sulfosulfuron 8.75 g ai/ha).

Take `COC(=O)c1ccccc1S(=O)(=O)NC(=O)N(C)c1nc(C)nc(OC)n1`: the pest or weed control at […] in assay [8] (CYPES, tribenuron 7.5 g ai/ha) was 0%; in assay [1] (Bassia scoparia, post-emergence, KCHSC, tribenuron 7.5 g ai/ha, read-out: % visual injury Obs), 70%; in assay [4] (Fallopia convolvulus, post-emergence, POLCO, tribenuron 7.5 g ai/ha, read-out: % visual injury Obs), 90%; in [6] (Ipomoea hederacea, post-emergence, tribenuron 7.5 g ai/ha, read-out: % visual injury Obs) it was 65%.
